Measurements: patent US10940150B2, “Thymine derivatives and quinazoline-dione derivatives for the inhibition of HSP27” (TECHNISCHE UNIVERSITAET DRESDEN, priority 2014, dated 2021)

Experiments:
HSP27 [1] = molecular target: T1, HSP27 (Homo sapiens, UniProt P04792); assay: SpeedScreen gel filtration binding test; details: PD SpinTraps G-25, detection by mass spectroscopy
Text: For the experimental validation of low-molecular-weight compounds which act as potential HSP27 inhibitors according to the in silico prediction, a method based on gel filtration was employed. The method for detecting molecular bonds using gel filtration was described in 2004 as “SpeedScreen” [Muckenschnabel et al., 2004] and was adapted to meet the requirements of the invention. […] For the separation, PD SpinTraps G-25 from GE Healthcare were used. During the 2-minute centrifugation at 800×g (according to operating instructions), these columns allow molecules with a molecular weight of greater than or equal to 5000 g/mol to pass through, while smaller molecules are retained in the matrix. The target protein HSP27 has a molecular weight of 27000 g/mol and therefore passes through the matrix. […] Non-bound low-molecular-weight compounds are retained by the matrix. Molecules that have passed through the matrix can then be detected by mass spectroscopy. This enables “binders” to be differentiated from “non-binders”. For the experimental validation of low-molecular-weight compounds which act as potential HSP27 inhibitors according to the in silico prediction, a method based on gel filtration was employed. […] Molecules that have passed through the matrix can then be detected by mass spectroscopy. […]

HSP27 [2] = molecular target: T1, HSP27; assay: Spectrophotometric protein aggregation assay (citrate synthase, HSP27 chaperone function); type: biochemical; details: 750 μmol/L; 43° C., 500 nm, 1.44 μmol/L CS, 481 nmol/L HSP27
Description: FIG. 1: a spectrophotometric protein aggregation assay at 43° C., a wavelength of 500 nm and a concentrations of the proteins: 1.44 μmol/L citrate synthase (CS), 481 nmol/L HSP27 (HSP) in a 40 mmol/L HEPES buffer (pH 7.4) during treatment with 14 or 28 μmol/L 2-(3-trichlorovinylphenylamino)-1,9-dihydropurin-6-one (CS+HSP+test substance no. 2), with 750 μmol/L BVDU (CS+HSP+BVDU) and without (CS+HSP; reference);
To measure the efficacy of the purine derivatives according to the invention, robust experiments for the chaperone function of the HSP27 protein were performed:
A known client protein (=substrate on which HSP27 acts as a chaperone) of HSP27 is citrate synthase. Citrate synthase is denatured when the temperature increases to 43° C. This heat denaturation is prevented or delayed by the presence of HSP27 [Jakob U, 1993]. By adding the novel active ingredients, their efficacy can thus be measured through the inhibition of the HSP27 chaperone function.
To determine the activity (i.e. the effect on the aggregation behaviour of the citrate synthase (CS) after thermal incubation) of 2-(3-trichlorovinylphenylamino)-1,9-dihydropurin-6-one in comparison to BVDU, four different batches containing 1.44 μmol/L CS, 481 nmol/L HSP27 (HSP) in a 40 mmol/L HEPES buffer (pH 7.4) were prepared and BVDU (750 μmol/L) or various concentrations of 2-(3-trichlorovinylphenylamino)-1,9-dihydropurin-6-one (14 μmol/L; 28 μmol/L) were added. The samples were then incubated at 43° C. and the aggregation behaviour of the CS was […] in a spectrometer (PerkinElmer LS55, PerkinElmer Inc.) at a wavelength of 500 nm.
It can be seen from FIG. 1 that the protein citrate synthase (graph CS alone) is denatured by increasing the temperature to 43° C. and forms aggregates. The aggregation is measured in the spectrometer at 500 nm (light scattering by protein aggregates). The presence of HSP27 (HSP) counteracts the aggregation (cf. graph, CS+HSP). Since the addition of the test substances (BVDU and 2-(3-trichlorovinylphenylamino)-1,9-dihydropurin-6-one) inhibits the chaperone function of HSP27, the activity of the respective test substance can be determined by measuring the aggregation behaviour of the CS.

T1 sequence (P04792 whole entry): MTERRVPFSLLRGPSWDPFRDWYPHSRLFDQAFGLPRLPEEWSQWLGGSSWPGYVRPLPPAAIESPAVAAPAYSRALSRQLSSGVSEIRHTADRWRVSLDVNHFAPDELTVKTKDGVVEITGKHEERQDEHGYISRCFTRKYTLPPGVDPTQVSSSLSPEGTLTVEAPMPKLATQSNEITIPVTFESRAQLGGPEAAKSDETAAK

| SMILES | SpeedScreen: passage through Sephadex G-25 matrix bound to HSP27 (binder / non-binder) (HSP27 [1]) | effect on chaperone function of HSP27 (CS aggregation) (HSP27 [2]) |
| --- | --- | --- |
| CC(=O)c1ccc2c(c1)N(CCCN(C)C)c1ccccc1S2 [Acepromazine] | tested positively | – |
| O=c1[nH]c(=O)n([C@H]2C[C@H](O)[C@@H](CO)O2)cc1/C=C/Br [BVDU, (E)-5-(2-bromovinyl)-2′-deoxyuridine] | – | partially cancels the chaperone function of HSP27 |
